Read-outs that look alike come from different tables or passages of the source. Blank lines part the entries; values can stand above or below the compound they belong to. Numbered stars: 1 amine (or outer) side, 2 acyl side, 3 side chain; on linkers, the order of the positions; unused ones are H or OH. Square brackets hold non-standard residues; d marks the D form. Side chains are listed from the residue outwards. Peptide text beside a SMILES is read from it. * marks the point of attachment. γGlu = O=C(O)[C@H](CCC(=O)[*:2])N[*:1]; αMeF = C[C@](N)(Cc1ccccc1)C(=O)O; αMeK = C[C@](N)(CCCCN)C(=O)O; Lauroyl = CCCCCCCCCCCC(=O)*; αMeS = C[C@](N)(CO)C(=O)O; AEEA = NCCOCCOCC(=O)O; Aib = CC(C)(N)C(=O)O
What was measured:
[1] = system: recombinant α-chymotrypsin; assay: Proteolytic resistance to α-chymotrypsin (% remaining intact peptide, RP-HPLC AUC); settings: t = 0; 37° C., pH 7.8
Description: (§3) Ratio enzyme (units):peptide (μmoles) ˜1:33. […] Ratio enzyme (units):peptide (μmoles) ˜1:2.5.
(§4) 15 μL aliquots (˜15 μg initial peptide) of the peptide-enzyme mixture are periodically withdrawn (t=0, 30 mins, 1 hr, 2 hr, 4 hr, 8 hr, 24 hr) and quenched immediately by addition to an equal volume (15 μL) of 5% TFA (v/v) in 1:1 water/acetonitrile to arrest proteolytic activity. 20 μL aliquots (˜10 μg initial peptide) are analysed by LC/MS and/or analytical RP-HPLC as follows: LC/MS method: Agilent Polaris C8-A column (4.6×100 mm, 3 micron) elutes with a linear binary gradient of 10-90% MeCN (0.1% TFA v/v) in water (0.1% TFA v/v) over 30 mins at 1.5 mL min^−1 at ambient temperature with detection by both UV absorption at 210 nm and ionization using a Waters 3100 mass detector (ESI^+ mode). Peptide fragments deriving from enzymatic hydrolysis are identified by molecular weight, allowing location of the site of cleavage. Analytical RP-HPLC method: Agilent Polaris C8-A column (4.6×100 mm, 3 micron) elutes with a linear binary gradient of 10-90% MeCN (0.1% TFA v/v) in water (0.1% TFA v/v) over either 10 or 15 mins at 1.5 mL min^−1 at 40° C. with detection by UV absorption at 210 nm. Manual integration (AUC) allows estimation of remaining intact peptide over the time course of the experiment.
(§5) 25 μL aliquots (˜6 μg initial peptide) are analysed by LC/MS and/or analytical RP-HPLC as follows: LC/MS method: Agilent Polaris C8-A column (4.6×100 mm, 3 micron) elutes with a linear binary gradient of 10-90% MeCN (0.1% TFA v/v) in water (0.1% TFA v/v) over 30 mins at 1.5 mL min^−1 at ambient temperature with detection by both UV absorption at 210 nm and ionization using a Waters 3100 mass detector (ESI±mode). Peptide fragments deriving from enzymatic hydrolysis are identified by molecular weight, allowing location of the site of cleavage. Analytical RP-HPLC method: Agilent Polaris C8-A column (4.6×100 mm, 3 micron) elutes with a linear binary gradient of 10-90% MeCN (0.1% TFA v/v) in water (0.1% TFA v/v) over either 10 or 15 mins at 1.5 mL min^−1 at 40° C. with detection by UV absorption at 210 nm. Manual integration (AUC) allows estimation of remaining intact peptide over the time course of the experiment.

[2] = as above; settings: recombinant α-chymotrypsin in assay buffer, pH 7.8
Description: as §3, §4, §5

[3] = system: FASSIF/Pancreatin® activated with 100 μg/mL human enterokinase; assay: Proteolytic resistance to FASSIF/Pancreatin following full zymogen activation with enterokinase; format: in vitro ADME; settings: t = 0; 37° C.
Description: A fresh suspension of FASSIF/P (Fasted-State Simulated Intestinal Fluid+USP Pancreatin®) was prepared according to that described by Galia, Nicolaides, Hörter, Lobenberg, Reppas and Dressman: Pharm. […] To the resulting preparation was added human enterokinase (100 μg/mL) to ensure the potential for full zymogen activity of the mixture which was used immediately without storage. Peptides for evaluation (1.0 mg, ˜250 nmoles) were initially dissolved in pre-warmed FASSIF without Pancreatin® (200 μL) to which was added pre-warmed fresh FASSIF/Pancreatin® ([…]) to initiate potential digestion. Following momentary vortexing of the Eppendorf reaction tube the mixture was incubated at 37° C. in a thermostatic waterbath for the duration of the experiment. 25 μL aliquots of the co-incubated peptide-enzyme mixture were periodically withdrawn (t=0, 5 m, 10 m, 15 m, 30 m, 1 h, 2 h) and quenched immediately by addition to a solution of 10% TFA in 1:1 water/acetonitrile (75 μL) to arrest proteolytic activity.

[4] = target: T1, human glucagon receptor (GCGR) (Homo sapiens, UniProt P47871); assay: cAMP assay, human GCGR cells; format: cell-based; settings: Table 9, bis-lipidated peptides
T1 construct: expressed in transfected cells; host or cells: HEK293 cells or CHO cells
T1 sequence (P47871 26-477): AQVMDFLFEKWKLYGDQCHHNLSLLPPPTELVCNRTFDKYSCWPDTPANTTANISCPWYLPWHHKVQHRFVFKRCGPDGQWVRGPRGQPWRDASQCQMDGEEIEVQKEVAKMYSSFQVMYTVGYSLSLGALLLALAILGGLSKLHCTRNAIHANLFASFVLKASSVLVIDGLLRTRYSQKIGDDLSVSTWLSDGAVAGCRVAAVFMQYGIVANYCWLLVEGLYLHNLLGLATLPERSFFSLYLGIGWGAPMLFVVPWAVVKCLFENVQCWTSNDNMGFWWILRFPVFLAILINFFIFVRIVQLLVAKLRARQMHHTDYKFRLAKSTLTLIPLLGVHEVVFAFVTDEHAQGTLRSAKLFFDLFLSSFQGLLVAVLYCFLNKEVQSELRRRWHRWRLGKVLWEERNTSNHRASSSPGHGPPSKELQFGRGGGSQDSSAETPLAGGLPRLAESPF
Summary of the method: (§1)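 Peptide-stimulated cAMP measured by two-step HTRF after a 30 min room-temperature incubation with receptor-expressing cells (hGLP-1R, hGIPR at 1×10^5 cells/ml; hGCGR at 2×10^5 cells/ml). Duplicate dilutions; EC50 from 4-parameter logistic fit of % Delta F.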

[5] = target: T2, porcine pancreatic pepsin (Sus scrofa, UniProt P00791); assay: Proteolytic resistance to pepsin (% remaining intact peptide, RP-HPLC AUC); format: in vitro ADME; settings: t = 0; 37° C., pH 2.0
T2 construct: purchased Sigma P7012
T2 sequence (P00791 60-385): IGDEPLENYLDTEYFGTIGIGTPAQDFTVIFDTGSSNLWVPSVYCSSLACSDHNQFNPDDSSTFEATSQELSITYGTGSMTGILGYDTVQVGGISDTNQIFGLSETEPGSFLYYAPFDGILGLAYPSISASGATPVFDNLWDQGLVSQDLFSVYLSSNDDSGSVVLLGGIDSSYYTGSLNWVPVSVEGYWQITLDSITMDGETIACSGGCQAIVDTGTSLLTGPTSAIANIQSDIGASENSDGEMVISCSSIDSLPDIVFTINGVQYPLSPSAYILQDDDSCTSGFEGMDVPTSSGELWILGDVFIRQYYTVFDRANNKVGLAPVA
Description: Pepsin: Lyophilized porcine pancreatic pepsin (Sigma: P7012) was reconstituted to afford a solution of 200 μg/mL (˜500 units/mL) in assay buffer (0.1 M HCl, pH 2.0) to give the enzyme stock solution. […] Ratio enzyme (units):peptide (moles) ˜1:6. […] Ratio enzyme (units):peptide (μmoles) ˜2:1.
Lyophilized porcine pancreatic pepsin (Sigma: P7012) was reconstituted to […] (˜500 units/mL) in assay buffer ([…], pH 2.0) to give the enzyme stock solution.

[6] = target: T3, human glucose-dependent insulinotropic peptide receptor (GIPR) (Homo sapiens, UniProt P48546); assay: cAMP assay, human GIPR cells; format: cell-based; settings: Table 9, bis-lipidated peptides
T3 construct: expressed in transfected cells; host or cells: HEK293 cells or CHO cells
T3 sequence (P48546 22-466): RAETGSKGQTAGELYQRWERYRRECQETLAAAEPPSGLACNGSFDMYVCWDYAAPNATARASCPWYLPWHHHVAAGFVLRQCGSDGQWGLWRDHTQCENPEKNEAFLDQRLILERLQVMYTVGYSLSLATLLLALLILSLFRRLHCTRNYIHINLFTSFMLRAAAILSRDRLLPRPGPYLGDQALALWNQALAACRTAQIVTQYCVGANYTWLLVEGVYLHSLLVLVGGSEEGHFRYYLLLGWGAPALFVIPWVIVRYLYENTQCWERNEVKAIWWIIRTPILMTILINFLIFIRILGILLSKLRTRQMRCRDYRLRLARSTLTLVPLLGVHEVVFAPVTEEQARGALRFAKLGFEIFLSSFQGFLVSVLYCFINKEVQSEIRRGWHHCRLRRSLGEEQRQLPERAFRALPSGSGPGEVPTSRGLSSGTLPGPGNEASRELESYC
Summary of the method: as §1

[7] = target: porcine pancreatic trypsin (Sus scrofa, UniProt P00761); assay: Proteolytic resistance to trypsin (% remaining intact peptide, RP-HPLC AUC); format: in vitro ADME; settings: t = 0; 37° C., pH 7.8
Sequence of porcine pancreatic trypsin (P00761 9-231): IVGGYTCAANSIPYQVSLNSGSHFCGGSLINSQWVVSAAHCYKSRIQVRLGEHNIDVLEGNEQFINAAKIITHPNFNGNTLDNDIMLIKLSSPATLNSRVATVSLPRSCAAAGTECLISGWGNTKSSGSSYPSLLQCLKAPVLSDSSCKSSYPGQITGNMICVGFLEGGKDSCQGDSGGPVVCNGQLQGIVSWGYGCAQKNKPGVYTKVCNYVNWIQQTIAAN

[8] = target: T4, recombinant Neprilysin (Homo sapiens, UniProt P08473); assay: Proteolytic resistance to neprilysin (% remaining peptide, RP-HPLC AUC); format: in vitro ADME; settings: t = 0 (baseline); 37° C., pH 8.3; enzyme:peptide ~1:33 for non-lipidated, ~1:2.5 for lipidated peptides
T4 construct: purchased R&D Systems 1182-ZNC-010
T4 sequence (P08473 whole entry): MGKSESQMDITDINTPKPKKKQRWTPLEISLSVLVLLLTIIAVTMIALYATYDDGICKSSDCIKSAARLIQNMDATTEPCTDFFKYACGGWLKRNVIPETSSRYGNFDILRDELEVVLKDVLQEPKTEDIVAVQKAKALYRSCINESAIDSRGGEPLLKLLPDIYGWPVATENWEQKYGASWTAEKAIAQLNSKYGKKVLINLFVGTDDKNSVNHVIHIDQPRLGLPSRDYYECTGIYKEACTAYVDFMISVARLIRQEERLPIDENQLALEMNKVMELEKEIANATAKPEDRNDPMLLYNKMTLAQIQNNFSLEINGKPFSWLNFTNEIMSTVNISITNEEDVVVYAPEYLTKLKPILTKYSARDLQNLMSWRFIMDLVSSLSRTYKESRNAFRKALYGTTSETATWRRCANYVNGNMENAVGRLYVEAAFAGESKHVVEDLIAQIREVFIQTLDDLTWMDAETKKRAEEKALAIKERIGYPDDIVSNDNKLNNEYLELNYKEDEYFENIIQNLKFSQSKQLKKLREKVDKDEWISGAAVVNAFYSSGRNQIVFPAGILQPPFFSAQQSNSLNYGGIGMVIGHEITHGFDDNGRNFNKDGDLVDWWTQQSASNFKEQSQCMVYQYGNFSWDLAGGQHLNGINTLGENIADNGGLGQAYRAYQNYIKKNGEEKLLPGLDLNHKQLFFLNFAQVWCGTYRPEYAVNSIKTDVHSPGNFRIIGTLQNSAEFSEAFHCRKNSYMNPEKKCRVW
Description: Ratio enzyme (units):peptide (moles) ˜1:33. […] Ratio enzyme (units):peptide (moles) ˜1:2.5.
15 μL aliquots (˜15 ng initial peptide) of the peptide-enzyme mixture were periodically withdrawn (t=0, 30 mins, 1 hr, 2 hr, 4 hr, 8 hr, 24 hr) and quenched immediately by addition to an equal volume (15 μL) of 5% TFA (v/v) in 1:1 water/acetonitrile to arrest proteolytic activity. 20 μL aliquots (˜10 ng initial peptide) were analyzed by LC/MS and/or analytical RP-HPLC as follows: LC/MS method: Agilent Polaris C8-A column (4.6×100 mm, 3 micron) eluted with a linear binary gradient of 10-90% MeCN (0.1% TFA v/v) in water (0.1% TFA v/v) over 30 mins at 1.5 mL min-1 at ambient temperature with detection by both UV absorption at 210 nm and ionization using a Waters 3100 mass detector (ESI+ mode). Peptide fragments deriving from enzymatic hydrolysis were identified by molecular weight, allowing location of the site of cleavage. Analytical RP-HPLC method: Agilent Polaris C8-A column (4.6×100 mm, 3 micron) eluted with a linear binary gradient of 10-90% MeCN (0.1% TFA v/v) in water (0.1% TFA v/v) over either 10 or 15 mins at 1.5 mL min^−1 at 40° C. with detection by UV absorption at 210 nm. Manual integration (AUC) allowed estimation of remaining intact peptide over the time course of the experiment.
25 μL aliquots (˜6 μg initial peptide) were analyzed by LC/MS and/or analytical RP-HPLC as follows: LC/MS method: Agilent Polaris C8-A column (4.6×100 mm, 3 micron) eluted with a linear binary gradient of 10-90% MeCN (0.1% TFA v/v) in water (0.1% TFA v/v) over 30 mins at 1.5 mL min^−1 at ambient temperature with detection by both UV absorption at 210 nm and ionization using a Waters 3100 mass detector (ESI^+ mode). Peptide fragments deriving from enzymatic hydrolysis were identified by molecular weight, allowing location of the site of cleavage. Analytical RP-HPLC method: Agilent Polaris C8-A column (4.6×100 mm, 3 micron) eluted with a linear binary gradient of 10-90% MeCN (0.1% TFA v/v) in water (0.1% TFA v/v) over either 10 or 15 mins at 1.5 mL min^−1 at 40° C. with detection by UV absorption at 210 nm. Manual integration (AUC) allowed estimation of remaining intact peptide over the time course of the experiment.

[9] = target: T5, human GLP-1 receptor (GLP-1R) (Homo sapiens, UniProt P43220); assay: cAMP assay, human GLP-1R cells; format: cell-based; settings: Table 9, bis-lipidated peptides; mean of n1 and n2; read-out: Primary assay EC50 Mean pM GLP-1R
T5 construct: expressed in transfected cells; host or cells: HEK293 cells or CHO cells
T5 sequence (P43220 24-463): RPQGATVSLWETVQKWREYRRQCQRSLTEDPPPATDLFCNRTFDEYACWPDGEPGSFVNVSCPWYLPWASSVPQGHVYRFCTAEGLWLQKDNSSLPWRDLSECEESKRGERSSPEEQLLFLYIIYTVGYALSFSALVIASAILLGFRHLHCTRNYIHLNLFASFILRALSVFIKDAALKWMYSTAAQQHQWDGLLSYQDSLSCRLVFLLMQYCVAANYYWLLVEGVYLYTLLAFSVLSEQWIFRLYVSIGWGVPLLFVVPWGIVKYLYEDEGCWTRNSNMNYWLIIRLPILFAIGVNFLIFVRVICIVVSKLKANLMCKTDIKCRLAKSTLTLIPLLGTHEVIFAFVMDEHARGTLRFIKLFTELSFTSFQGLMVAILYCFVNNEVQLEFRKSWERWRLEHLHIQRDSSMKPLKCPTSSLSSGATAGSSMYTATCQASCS
Summary of the method: as §1

[10] = target: T6, GLP-1R (INS1e cells) (Rattus norvegicus, UniProt P32301); assay: INS1e assay, cAMP activity at GLP-1R; format: cell-based; settings: Table 10, bis-lipidated peptides, mean of n1 and n2, read-out: INS1e assay EC50 Mean pM GLP-1R
T6 construct: endogenous in cells; host or cells: INS1e cells
T6 sequence (P32301 22-463): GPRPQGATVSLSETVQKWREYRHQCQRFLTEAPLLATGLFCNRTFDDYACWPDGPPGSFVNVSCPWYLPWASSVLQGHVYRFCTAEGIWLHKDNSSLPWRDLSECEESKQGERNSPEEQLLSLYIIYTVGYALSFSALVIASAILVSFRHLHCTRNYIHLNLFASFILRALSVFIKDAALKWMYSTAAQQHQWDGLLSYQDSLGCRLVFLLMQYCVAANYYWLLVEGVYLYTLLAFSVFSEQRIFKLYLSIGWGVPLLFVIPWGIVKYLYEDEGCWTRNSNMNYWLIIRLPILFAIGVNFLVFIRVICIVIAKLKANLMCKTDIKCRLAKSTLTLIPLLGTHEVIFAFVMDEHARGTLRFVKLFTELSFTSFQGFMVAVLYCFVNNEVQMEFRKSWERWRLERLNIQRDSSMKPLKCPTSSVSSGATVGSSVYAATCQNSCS

[11] = Proteolytic resistance to fasted-state simulated intestinal fluid (FASSIF/Pancreatin); format: in vitro ADME; settings: 37° C., read-out: Percentage remaining intact peptide (AUC by RP-HPLC) upon incubation with fasted-state simulated intestinal fluid (FASSIF/P)
Description: (§2) A fresh suspension of FASSIF/P (Fasted-State Simulated Intestinal Fluid+USP Pancreatin®) was prepared according to that described by Galia, Nicolaides, Hörter, Lobenberg, Reppas and Dressman: Pharm. Res. 15 (1998) 698-705. The resulting preparation is proteolytically equivalent to ˜375 units/mL (375 kU/L) and was used immediately without storage. Peptides for evaluation (1.0 mg, ˜250 nmoles) were initially dissolved in pre-warmed FASSIF without Pancreatin® (200 μL) to which was added pre-warmed fresh FASSIF/Pancreatin® (100 μL) to initiate potential digestion. Following momentary vortexing of the Eppendorf reaction tube the mixture was incubated at 37° C. in a thermostatic waterbath for the duration of the experiment. 25 μL aliquots of the co-incubated peptide-enzyme mixture were periodically withdrawn (t=0, 5 m, 10 m, 15 m, 30 m, 1 h, 2 h) and quenched immediately by addition to a solution of 10% TFA in 1:1 water/acetonitrile (75 μL) to arrest proteolytic activity.

[12] = system: FASSIF/P (Fasted-State Simulated Intestinal Fluid+USP Pancreatin®); assay: as above; format: in vitro ADME; settings: t = 0; 37° C.
Description: as §2

[13] = first replicate, read-out: Primary assay EC50 Gluc-R (n1)
[14] = second replicate, read-out: Primary assay EC50 Gluc-R (n2)
[15] = first replicate, read-out: Primary assay EC50 GIP-R (n1)
[16] = second replicate, read-out: Primary assay EC50 GIP-R (n2)

Percentage remaining intact peptide (AUC by RP-HPLC) upon incubation with α-chymotrypsin [1]: 100% | remaining at 0.5 h [2]: 97.1% | remaining at 1 h [2]: 95.8% | remaining at 2 h [2]: 96% | remaining at 4 h [2]: 94.2% | remaining at 8 h [2]: 92.6% | remaining at 24 h [2]: 89.4% | Percentage remaining intact peptide (AUC by RP-HPLC) upon incubation with FASSIF activated with 100 μg/mL enterokinase [3]: 100% | EC50 [4, 13]: ≥ 22.8 nM | EC50 [4, 14]: ≥ 22.8 nM | Percentage remaining intact peptide (AUC by RP-HPLC) upon incubation with pepsin [5]: 100% | EC50 [6, 15]: ≥ 22.8 nM | EC50 [6, 16]: ≥ 22.8 nM | Percentage remaining intact peptide (AUC by RP-HPLC) upon incubation with trypsin [7]: 100% | Percentage remaining peptide (AUC at specified time-point by RP-HPLC) upon incubation with neprilysin, t = 0 [8]: 100%
Compound: CCCCCCCCCCCC(=O)N[C@@H](CCC(=O)NCCOCCOCC(=O)NCCOCCOCC(=O)NCCCC[C@H](NC(=O)[C@H](C)NC(=O)[C@@H](NC(=O)[C@H](Cc1ccccc1)NC(=O)[C@H](CCC(=O)O)NC(=O)[C@](C)(CCCCN)NC(=O)[C@H](C)NC(=O)[C@H](C)NC(=O)[C@H](CCC(=O)O)NC(=O)CNC(=O)[C@H](CCC(=O)O)NC(=O)[C@H](CCCCNC(=O)COCCOCCNC(=O)COCCOCCNC(=O)CC[C@H](NC(=O)CCCCCCCCCCC)C(=O)O)NC(=O)[C@H](Cc1ccc(O)cc1)NC(=O)[C@H](CO)NC(=O)[C@](C)(CO)NC(=O)[C@@H](NC(=O)[C@H](CC(=O)O)NC(=O)[C@H](CO)NC(=O)[C@@H](NC(=O)[C@](C)(Cc1ccccc1)NC(=O)[C@H](CO)NC(=O)CNC(=O)[C@H](CCC(=O)O)NC(=O)C(C)(C)NC(=O)[C@@H](N)Cc1c[nH]cn1)[C@@H](C)O)C(C)C)[C@@H](C)CC)C(=O)N[C@H](C(=O)N[C@H](C(=O)N[C@@H](CCC(=O)O)C(=O)NCC(=O)NCC(N)=O)C(C)C)C(C)C)C(=O)O [compound 269] (H-H[Aib]EGS[αMeF]TSDV[αMeS]SYK([AEEA-AEEA-γGlu-Lauroyl])EGEAA[αMeK]EFIAK([AEEA-AEEA-γGlu-Lauroyl])VVEGG-NH2; N-terminus assumed)

Percentage remaining intact peptide (AUC by RP-HPLC) upon incubation with FASSIF activated with 100 μg/mL enterokinase [3]: 100% | EC50 [9]: 3.9 pM | EC50 [10]: 116 pM | EC50 [4, 13]: ≥ 21.5 nM | EC50 [4, 14]: ≥ 21.5 nM | EC50 [6, 15]: ≥ 21.5 nM | EC50 [6, 16]: ≥ 21.5 nM | remaining at 5 min, […] ([11]; t = 5 m): 99.5% | remaining at 10 min, […] ([11]; t = 10 m): 99% | remaining at 0.25 h, […] ([11]; t = 15 m): 99.4% | remaining at 0.5 h, […] ([11]; t = 30 m): 95.7% | remaining at 1 h, […] ([11]; t = 1 h): 88.7% | remaining at 2 h, […] ([11]; t = 2 h): 60.4% | Percentage remaining intact peptide (AUC by RP-HPLC) upon incubation with fasted-state simulated intestinal fluid (FASSIF/P) [12]: 100%
Compound: CCCCCCCCCCCC(=O)N[C@@H](CCC(=O)NCCOCCOCC(=O)NCCOCCOCC(=O)NCCCC[C@H](NC(=O)[C@H](C)NC(=O)[C@@H](NC(=O)[C@](C)(Cc1ccccc1)NC(=O)[C@H](CCC(=O)O)NC(=O)[C@](C)(CCCCN)NC(=O)[C@H](C)NC(=O)[C@H](C)NC(=O)[C@H](CCC(=O)O)NC(=O)CNC(=O)[C@H](CCC(=O)O)NC(=O)[C@H](CC(C)C)NC(=O)[C@H](CCCCNC(=O)COCCOCCNC(=O)COCCOCCNC(=O)CC[C@H](NC(=O)CCCCCCCCCCC)C(=O)O)NC(=O)[C@H](CO)NC(=O)[C@](C)(CO)NC(=O)[C@@H](NC(=O)[C@H](CC(=O)O)NC(=O)[C@H](CO)NC(=O)[C@@H](NC(=O)[C@](C)(Cc1ccccc1)NC(=O)[C@H](CO)NC(=O)CNC(=O)[C@H](CCC(=O)O)NC(=O)C(C)(C)NC(=O)[C@@H](N)Cc1c[nH]cn1)[C@@H](C)O)C(C)C)[C@@H](C)CC)C(=O)N[C@H](C(=O)N[C@H](C(=O)N[C@@H](CCC(=O)O)C(=O)NCC(=O)NCC(N)=O)C(C)C)C(C)C)C(=O)O [compound 405] (H-H[Aib]EGS[αMeF]TSDV[αMeS]SK([AEEA-AEEA-γGlu-Lauroyl])LEGEAA[αMeK]E[αMeF]IAK([AEEA-AEEA-γGlu-Lauroyl])VVEGG-NH2; N-terminus assumed)
